# Measured values: patent US5753516A, “Screening method for ligands of the EBI-1 receptor” (priority 1995, dated 1998)
# How the values were obtained:
# [1] = tested on: LAZ 221 cells; test: Migration (chemotaxis) of LAZ 221 pre-B ALL cells; type: cell-based, human; conditions: LAZ 221, peptide 100 nM; spontaneous locomotion 1886
# [2] = tested on: human T cells; conditions: Heagy et al., 1990; cited from earlier work
# [3] = tested on: LAZ 388 cells; test: Migration (chemotaxis) of LAZ 388 EBV-transformed B cells; type: cell-based, human; conditions: LAZ 388, peptide 100 nM; spontaneous locomotion 1938
# [4] = tested on: Jurkat cells
# [5] = tested on: NALM 6 cells; test: Migration (chemotaxis) of NALM 6 pre-B ALL cells; type: cell-based, human; conditions: for cell migration (cell counts): NALM 6, peptide 100 nM, spontaneous locomotion 2190; for concentration inducing migration: NALM 6 and LAZ 221; for effect on migration of pre-B ALL cells: NALM 6 and LAZ 221 cells
# [6] = target: T1, EBI1 (Homo sapiens, UniProt P32248)
# T1 sequence (P32248 25-378): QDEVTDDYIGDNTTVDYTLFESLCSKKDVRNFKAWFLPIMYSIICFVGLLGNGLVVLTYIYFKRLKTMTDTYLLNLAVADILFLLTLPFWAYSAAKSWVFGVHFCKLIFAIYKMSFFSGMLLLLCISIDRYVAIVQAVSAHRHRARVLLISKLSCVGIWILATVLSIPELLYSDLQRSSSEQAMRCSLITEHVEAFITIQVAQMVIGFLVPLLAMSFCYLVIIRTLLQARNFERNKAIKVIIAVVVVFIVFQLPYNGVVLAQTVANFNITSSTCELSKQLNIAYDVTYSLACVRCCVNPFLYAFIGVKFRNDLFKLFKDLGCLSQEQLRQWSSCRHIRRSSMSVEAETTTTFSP
# [7] = tested on: COS (Vector Control); test: cAMP accumulation in COS cells (vector control); type: cell-based, monkey; conditions: COS (Vector Control); MET-ENK 0.01 nM, naloxone 10 μM, forskolin 0.1 μM; controls 40.2 and 38.8
# [8] = tested on: human T cells; test: Migration of human peripheral blood T cells; type: cell-based
# [9] = tested on: leukocytes; conditions: Lu et al., 1960; cited from earlier work
# [10] = tested on: lymphocytes and macrophages; conditions: animals; cited from earlier work
# [11] = tested on: Jurkat cells; test: [Ca^2+ ]i response of Jurkat cells (Indo-1, flow cytometry); type: cell-based, human
# Experimental: FIG. 14, Panel A and B. Methionine enkephalin and opiate receptor agonists selective for […] stimulate transmembrane signaling in Jurkat cells. Cells were labeled with Indo-1, washed twice in serum-free medium and held at 4° C. until analyzed. Indo-1 fluorescence was measured using flow cytometry as previously described (Heagy et al., 1992; Ledbetter et al., 1987; Chang et al., 1989; Rabinovitch et al., 1986). The fluorescence for nonstimulated cells (measured in medium, alone) was arbitrarily set at 1.0. Data are presented as per cent increase in the response [(r-baseline) x 100%]. Baseline [Ca^2+ ]i value measured for Jurkat cells (n=4) was 80±40 nM. Baseline Panel A, Jurkat cell response to MET-ENK (0.1 nM, 10 nM and 1 μM) and to the d- selective agonist Dermenkephalin (10 nM). Panel B, Jurkat cell response to the d- selective agonist (D-Pen ^2,5, p Cl-Phe^4)-ENK (0.1 nM. 10 nM. 1 μM).
# The inventors (Heagy et al., 1992) have previously shown that when applied to NALM 6 cells the κ-1 agonist U69,953 stimulates a rapid increase in [Ca^2+ ]i. […] In order to determine whether the sites the inventors have identified using the δ-selective agonists also elicit Ca^2+ responses the inventors measured the effects of opioid peptides and δ-selective agonists on the calcium response. […] These studies provide evidence that Jurkat cells have functional δ opiate receptor sites which stimulate transmembrane signaling via rapid increases in [Ca^2+ ]i.
# [12] = target: EBI1, novel lymphocyte R7G opioid binding protein (human); test: radioligand filtration assay on membranes of EBI1-transfected COS cells; nonspecific binding with 50 µM naloxone
# [13] = target: NALM 6 cells (pre-B acute lymphoblastic leukemia cell line), enkephalin/opiate binding sites not defined as a molecule; test: flow cytometry of MET-ENK-FITC on NALM 6 cells, two-site model, high affinity site
# [14] = target: Jurkat cells (T cell leukemia cell line), enkephalin/opiate binding sites not defined as a molecule; test: flow cytometry of MET-ENK-FITC on Jurkat cells, two-site model, high affinity site
# [15] = target: Jurkat cells (T cell leukemia cell line), enkephalin/opiate binding sites not defined as a molecule; test: flow cytometry of MET-ENK-FITC on Jurkat cells, two-site model, low affinity site
# [16] = target: NALM 6 cells (pre-B acute lymphoblastic leukemia cell line), enkephalin/opiate binding sites not defined as a molecule; test: flow cytometry of MET-ENK-FITC on NALM 6 cells, two-site model, low affinity site
molecule,measurement,setting,value
"CC(C)C[C@@H](NC(=O)[C@H](Cc1ccccc1)NC(=O)CNC(=O)[C@@H](C)NC(=O)[C@@H](N)Cc1ccc(O)cc1)C(=O)O [DADLE, [D-Ala^2,D-Leu5]-enkephalin]",cell migration (cell counts),[1],4405 cell counts
same,human T cell migration,[2],potent stimulants for the migration of isolated human T cells
same,cell migration (cell counts),[3],2283 cell counts
same,"specific binding, % of total",[4],50-60%
same,cell migration (cell counts),[5],6240 cell counts
same,concentration inducing migration,[5],≤ 10^-10 M
same,effect on migration of pre-B ALL cells,[5],"enhanced, albeit modestly, the migration of NALM 6 and LAZ 221 cells"
"C[C@@H](NC(=O)[C@@H](N)Cc1ccc(O)cc1)C(=O)NCC(=O)N(C)[C@@H](Cc1ccccc1)C(=O)NCCO [DAMGO, [D-Ala^2, Me-Phe^4, Gly(ol)^5]-enkephalin]",cell migration (cell counts),[1],4602 cell counts
same,human T cell migration,[2],potent stimulants for the migration of isolated human T cells
same,cell migration (cell counts),[3],2043 cell counts
same,cell migration (cell counts),[5],5070 cell counts
same,concentration inducing migration,[5],≤ 10^-10 M
same,effect on migration of pre-B ALL cells,[5],"enhanced, albeit modestly, the migration of NALM 6 and LAZ 221 cells"
CSCC[C@H](NC=O)C(=O)N[C@@H](CC(C)C)C(=O)N[C@@H](Cc1ccccc1)C(=O)O [FMLP],cell migration (cell counts),[1],2906 cell counts
same,cell migration (cell counts),[3],1914 cell counts
same,cell migration (cell counts),[5],3198 cell counts
same,effect on migration of pre-B ALL cells,[5],had no effect on the migration of the pre-B ALL cells
C=C[C@@]1(C)CC(=O)[C@]2(O)[C@@]3(C)[C@@H](O)CCC(C)(C)[C@@H]3[C@H](O)[C@H](OC(C)=O)[C@@]2(C)O1 [Forskolin],cAMP,[6],234.8 fmoles/cell × 10^3
same,cAMP,[7],130.5 fmoles/cell × 10^3
CC(C)C[C@H](NC(=O)[C@H](Cc1ccccc1)NC(=O)CNC(=O)CNC(=O)[C@@H](N)Cc1ccc(O)cc1)C(=O)O [LEU-ENK],human lymphocyte / T cell migration,[8],stimulate human lymphocyte migration
same,lowest concentration at which T cell migration was detectable,[8]; human peripheral blood T cells,0.1 pM
CN1CC[C@]23c4c5ccc(O)c4O[C@H]2[C@@H](O)C=C[C@H]3[C@H]1C5 [morphine],leukocyte changes in rabbits,[9],caused a leukocytosis in parallel with a depletion of lymphocyte blasts and other hematopoietic precursors in the bone marrow
same,lymphocyte trafficking in vivo,[10],enhance lymphocyte trafficking
"(D-Pen^2,5, p-Cl-Phe^4)-ENK",[Ca^2+ ]i response,[11],stimulated the Ca^2+ response
same,concentration eliciting [Ca^2+ ]i response,[11],10^-8 to 10^-6 M
"DPDPE ([D-Pen2,5]enkephalin), delta-selective opiate receptor agonist (peptide)",Kd,[12],0.2 nM
fluorescein derivative of methionine enkephalin (MET-ENK-FITC) (peptide),Kd,[13],1.01 nM
same,Kd,[14],1.36 nM
same,Kd,[15],181 nM
same,Kd,[16],318 nM
